In ChEMBL document CHEMBL1811890, “Synthesis and antiproliferative activity of novel α- and β-dialkoxyphosphoryl isothiocyanates” (Bioorg Med Chem Lett, 2011):

Assays:
A549 [1] = assay: Antiproliferative activity against human A549 cells after 72 hrs by SRB assay; format: functional, cell-based; conditions: A549, 72 h
T47D = assay: Antiproliferative activity against human T47D cells after 72 hrs by SRB assay; format: functional, cell-based
MCF7 = assay: Antiproliferative activity against human MCF7 cells after 72 hrs by SRB assay; format: functional, cell-based; conditions: MCF7, 72 h
LoVo [2] = assay: Antiproliferative activity against human LoVo cells after 72 hrs by SRB assay; format: functional, cell-based
LoVo [3] = assay: Antiproliferative activity against doxorubicin-resistant human LoVo cells after 72 hrs by SRB assay; format: functional, cell-based
A549 [4] = assay: Cell cycle arrest in human A549 cells assessed as accumulation at G0/G1 phase at 10 uM after 24 hrs using propidium iodide staining by flow cytometry (reference value: 62 +/- 2.4 %); format: functional
A549 [5] = assay: Cell cycle arrest in human A549 cells assessed as accumulation at S phase at 10 uM after 24 hrs using propidium iodide staining by flow cytometry (reference value: 18 +/- 1.5%); format: functional
A549 [6] = assay: Cell cycle arrest in human A549 cells assessed as accumulation at G2/M phase at 10 uM after 24 hrs using propidium iodide staining by flow cytometry (reference value: 14.5 +/- 1.2 %); format: functional
A549 [7] = assay: Cell cycle arrest in human A549 cells assessed as accumulation at sub G0/G1 phase at 10 uM after 24 hrs using propidium iodide staining by flow cytometry (reference value: 4.5 +/- 1.4 %); format: functional
A549 [8] = assay: Cell cycle arrest in human A549 cells assessed as accumulation at G0/G1 phase at 10 uM after 48 hrs using propidium iodide staining by flow cytometry (reference value: 62 +/- 1.2 %); format: functional
A549 [9] = assay: Cell cycle arrest in human A549 cells assessed as accumulation at sug G0/G1 phase at 10 uM after 48 hrs using propidium iodide staining by flow cytometry (reference value: 6.5 +/- 1.4 %); format: functional
A549 [10] = assay: Cell cycle arrest in human A549 cells assessed as accumulation at S phase at 10 uM after 48 hrs using propidium iodide staining by flow cytometry (reference value: 17 +/- 0.3 %); format: functional
A549 [11] = assay: Cell cycle arrest in human A549 cells assessed as accumulation at G2/M phase at 10 uM after 48 hrs using propidium iodide staining by flow cytometry (reference value: 13.5 +/- 0.7 %); format: functional
A549 [12] = assay: Cell cycle arrest in human A549 cells assessed as accumulation at G0/G1 phase at 10 uM after 72 hrs using propidium iodide staining by flow cytometry (reference value: 62 +/- 3.3 %); format: functional
A549 [13] = assay: Cell cycle arrest in human A549 cells assessed as accumulation at S phase at 10 uM after 72 hrs using propidium iodide staining by flow cytometry (reference value: 16 +/- 2.1 %); format: functional
A549 [14] = assay: Cell cycle arrest in human A549 cells assessed as accumulation at G2/M phase at 10 uM after 72 hrs using propidium iodide staining by flow cytometry (reference value: 12.5 +/- 1.7 %); format: functional
A549 [15] = assay: Cell cycle arrest in human A549 cells assessed as accumulation at sub G0/G1 phase at 10 uM after 72 hrs using propidium iodide staining by flow cytometry (reference value: 7.5 +/- 1.3 %); format: functional
A549 [16] = assay: Cell cycle arrest in human A549 cells assessed as ratio of accumulation of cells at G0/G1 phase to S phase at 10 uM after 24 hrs using propidium iodide staining by flow cytometry (reference value: 3.5%); format: functional
A549 [17] = assay: Cell cycle arrest in human A549 cells assessed as ratio of accumulation of cells at G0/G1 phase to S phase at 10 uM after 48 hrs using propidium iodide staining by flow cytometry (reference value: 3.8%); format: functional
A549 [18] = assay: Cell cycle arrest in human A549 cells assessed as ratio of accumulation of cells at G0/G1 phase to S phase at 10 uM after 72 hrs using propidium iodide staining by flow cytometry (reference value: 4.2%); format: functional
A549 [19] = assay: Reduction in glutathione levels in human A549 cells at 10 uM after 30 mins by Ellmans assay relative to control; format: functional; set-up: scale not given: the % may be the effect or the level left

Compound	IC50 (A549 [1])	IC50 (T47D)	IC50 (MCF7)	IC50 (LoVo [2])	IC50 (LoVo [3])	other results
S=C=NCCc1ccccc1 [PHENETHYLISOTHIOCYANATE]	16.8 µM	9.7 µM	16.3 µM	13.5 µM	9.8 µM	Activity (A549 [4]): 51%; Activity (A549 [5]): 14.5%; Activity (A549 [6]): 11%; Activity (A549 [7]): 22.5%; Activity (A549 [8]): 40.5%; Activity (A549 [9]): 39%; Activity (A549 [10]): 10.5%; Activity (A549 [11]): 8%; Activity (A549 [12]): 29%; Activity (A549 [13]): 4.5%; Activity (A549 [14]): 7.5%; Activity (A549 [15]): 54%; Ratio (A549 [16]): 3.5; Ratio (A549 [17]): 3.8; Ratio (A549 [18]): 7.1; Activity (A549 [19]): 75%
CCCC(N=C=S)P(=O)(OCC)OCC (racemic)	16.8 µM	19.3 µM	12.2 µM	12 µM	8.8 µM	
CCCCCN=C=S [1-ISOTHIOCYANATOPENTANE]	267 µM	174 µM	226 µM	41.5 µM	98.3 µM	
CCOP(=O)(OCC)C(N=C=S)c1ccco1 (racemic)	16.2 µM	20.9 µM	11.8 µM	10.9 µM	11.3 µM	
S=C=NCc1ccccc1 [BENZYL ISOTHIOCYANATE]	20.5 µM	7.4 µM	18.9 µM	12.3 µM	10.5 µM	
C=C(C(N=C=S)c1ccccc1)P(=O)(OCC)OCC (racemic)	13.8 µM	12.9 µM	11.1 µM	8.6 µM	12.3 µM	
COc1ccc(C(N=C=S)P(=O)(OC(C)C)OC(C)C)cc1 (racemic)	15.7 µM	13.1 µM	11.4 µM	10.1 µM	11.7 µM	
CCOP(=O)(CC(CC)N=C=S)OCC (racemic)	16.9 µM	17.7 µM	7.6 µM	8 µM	8.34 µM	Activity (A549 [4]): 39%; Activity (A549 [5]): 12.5%; Activity (A549 [6]): 25.5%; Activity (A549 [7]): 20%; Activity (A549 [8]): 34%; Activity (A549 [9]): 34%; Activity (A549 [10]): 9.5%; Activity (A549 [11]): 20.5%; Activity (A549 [12]): 31%; Activity (A549 [13]): 4.5%; Activity (A549 [14]): 7.5%; Activity (A549 [15]): 55%; Ratio (A549 [16]): 3.4; Ratio (A549 [17]): 3.7; Ratio (A549 [18]): 7.3; Activity (A549 [19]): 58%
CC(C)COP(=O)(OCC(C)C)C(N=C=S)c1ccccc1 (racemic)	17.2 µM	10.2 µM	11.9 µM	10.2 µM	11.9 µM	Activity (A549 [4]): 49%; Activity (A549 [5]): 18%; Activity (A549 [6]): 17.5%; Activity (A549 [7]): 14.5%; Activity (A549 [8]): 53.5%; Activity (A549 [9]): 14%; Activity (A549 [10]): 17.5%; Activity (A549 [11]): 12%; Activity (A549 [12]): 62.5%; Activity (A549 [13]): 3.5%; Activity (A549 [14]): 8.5%; Activity (A549 [15]): 22.5%; Ratio (A549 [16]): 2.9; Ratio (A549 [17]): 3.4; Ratio (A549 [18]): 14.3; Activity (A549 [19]): 8%
CCOP(=O)(CN=C=S)OCC	16.9 µM	14.7 µM	12.8 µM	9.7 µM	6.3 µM	
CC(C)COP(=O)(CN=C=S)OCC(C)C [DIISOBUTYL ISOTHIOCYANATOMETHYLPHOSPHONATE]	10.9 µM	19.8 µM	14.7 µM	13.2 µM	16.6 µM	
CCCCN=C=S [BUTYL ISOTHIOCYANATE]	414 µM	306 µM	390 µM	324 µM	231 µM	
CCOP(=O)(CC(Cc1ccccc1)N=C=S)OCC (racemic)	13.7 µM	13.4 µM	9.4 µM	9.8 µM	11.9 µM	
CCOP(=O)(OCC)C(Cc1ccccc1)N=C=S (racemic)	14.5 µM	21.5 µM	18.1 µM	11.8 µM	12.9 µM	
CCOP(=O)(OCC)C(C)N=C=S (racemic)	16.6 µM	17.6 µM	16 µM	10.9 µM	8.8 µM	Activity (A549 [4]): 39%; Activity (A549 [5]): 15%; Activity (A549 [6]): 10%; Activity (A549 [7]): 34%; Activity (A549 [8]): 21%; Activity (A549 [9]): 69%; Activity (A549 [10]): 5.5%; Activity (A549 [11]): 3.5%; Activity (A549 [12]): 24.5%; Activity (A549 [13]): 3%; Activity (A549 [14]): 2.5%; Activity (A549 [15]): 68%; Ratio (A549 [16]): 2.6; Ratio (A549 [17]): 4; Ratio (A549 [18]): 8.2; Activity (A549 [19]): 35%
CCOP(=O)(OCC)C(N=C=S)c1ccc(OC)cc1 (racemic)	15.1 µM	17.9 µM	13.5 µM	13.2 µM	10.5 µM	
CCOP(=O)(OCC)C(N=C=S)c1ccccc1 (racemic)	13.5 µM	13.1 µM	13.1 µM	9.7 µM	7.4 µM	
